Patent US11491245B2, “Gadolinium chelate compounds for use in magnetic resonance imaging” (BAYER PHARMA AKTIENGESELLSCHAFT, priority 2015, dated 2022)

What was measured:
Assay type in all cases: physicochemical
[1] = Relaxivity measurements at 3.0 T; conditions: 37° C., normalized to Gd, average ± standard deviation
Protocol: Relaxivity measurements at 3.0 T were performed with a whole body 3.0 T MRI Scanner (Philips Intera, Philips Healthcare, Hamburg, Germany) using a knee-coil (SENSE-Knee-8, Philips Healthcare, Hamburg, Germany). The sample tubes (CryoTubetm Vials, Thermo Scientific 1.8 mL, Roskilde, Denmark) were positioned in 3 rows of 4 and 5 tubes in a plastic holder in a box filled with water. The temperature was adjusted to 37° C. For the MRI sequence, the shortest possible echo-time (TE) with 7.46 milliseconds was used. The inversion times were chosen to optimize the sequence to measure T1 values corresponding to the estimated T1 range of all relaxation times of contrast media containing solutions. The following inversion times (TIs) were applied: 50, 100, 150, 200, 300, 500, 700, 1000, 1400, 2100, 3200, and 4500 milliseconds. The sequence was run with a constant relaxation delay of 3.4 seconds after the registration of the last echo (variable TR in the range from 3450 to 7900 milliseconds). For details of the fit procedure, see Rohrer et. al. (Invest. Radiol. 2005; 40, 11: 715-724). The experimental matrix of the phantom measurement was 320×320.
The relaxivities were evaluated using three different concentrations of each compound (3 concentrations between 0.05 and 2 mM).
(§1) The T1 relaxation times of the Example compounds 1-6 were measured in water and human plasma. Human plasma preparation: For each experiment fresh blood was taken from a volunteer using 10 mL citrate-tubes (Sarstedt S-Monovette 02.1067.001, 10 mL, Citrate). The 10 mL citrate-tubes were carefully inverted 10 times to mix blood and anticoagulant and centrifuged for 15 minutes at 1811 g at room temperature (Eppendorf, Centrifuge 5810R).
The relaxivities ri (where i=1, 2) were calculated on the basis of the measured relaxation rates Ri in water and plasma: Ri=Ri(0)+ri[CGd], where Ri(0) represent the relaxation rate of the respective solvent and CGd the concentration of the compound normalized to the Gadolinium (Table 2).

[2] = Relaxivity measurements at 1.41 T; conditions: 1.41 T, 37° C., normalized to Gd
Protocol: Relaxivity measurements at 1.41 T were performed using a MiniSpec mq60 spectrometer (Bruker Analytik, Karlsruhe, Germany) operating at a resonance frequency of 60 MHz and a temperature of 37° C. The T1 relaxation times were determined using the standard inversion recovery (IR) method with a fixed relaxation delay of at least 5×T1. The variable inversion time (TI) was calculated automatically by the standard software of the MiniSpec mq60 (8 steps). The T2 measurements were done by using a Carr-Purcell-Meiboom-Gill (CPMG) pulse sequence, applying a relaxation delay of at least 5×T1.
Each relaxivity measurement was performed using three different Gd concentrations (3 concentrations between 0.05 and 2 mM). The T1 and T2 relaxation times of the example compounds 1-10 were measured in different media for example in water, fetal bovine serum (FBS, Sigma, F7524) and human plasma.
as §1, with “Human” for “The T1 relaxation times of the Example compounds 1-6 were measured in water and human plasma. Human”
The relaxivities ri (where i=1, 2) were calculated on the basis of the measured relaxation rates Ri in water and plasma: Ri=Ri(0)+ri[CGd], where Ri(0) represent the relaxation rate of the respective solvent and CGd the concentration of the compound normalized to the Gadolinium. The Gadolinium concentrations of the investigated solutions were verified by Inductively Coupled Plasma Mass Spectroscopy (ICP-MS Agilent 7500a, Waldbronn, Germany).

[3] = Chemical stability (autoclaving at 121° C.); conditions: 5 mmol Gd/L in 10 mM Tris-HCl buffer, pH 7.4, 121° C. for 20 min
[4] = Water solubility; conditions: 10 mM Tris-HCl buffer, 20° C.
Protocol: The water solubility of the compounds was determined at room temperature (20° C.) in 0.5 mL buffer solution (10 mM Tris-HCl) in the microcentrifuge tubes (Eppendorf, 2.0 mL safe-lock caps). The solid compound was added stepwise to the buffer solution. The suspension was mixed using a shaker (Heidolph Reax 2000) and treated 5 min in an ultrasound bath (Bandelin, Sonorex Super RK255H) The suspension was stored at room temperature (20° C.) over night and final Gadolinium concentration was determined by inductively coupled plasma mass spectrometry (ICP-MS).

**Q.** With “Hexagadolinium 2,2′,2″,2′″,2″″,2′″″,2″″″,2′″″″,2″″″″,2′″″″″,2″″″″″,2′″″″″″,2″″″″″″, 2′″″″″″″,2″″″″″″″, 2′″″″″″″″,2″″″″″″″″,2′″″″″″″″″-(1,4,7-triazonane-1,4,7-triyltris{carbonyl- 1,4-diazepane-6,1,4-triylbis[(2-oxoethane-2,1-diyl)imino(1-oxopropane-1,2-diyl)-1,4,7,10-tetraazacyclododecane-10,1,4,7-tetrayl]})octadecaacetate [Example 6]” as the substance, how does the r1 human plasma ([1]; human plasma) read?
**A.** 12.8 ± 0.3 L/mmol/s

**Q.** And the r1 water ([1]; water)?
**A.** 11.3 ± 0.4 L/mmol/s

**Q.** What about the “r1 FBS” value ([2]; fetal bovine serum) of the same substance?
**A.** 14.2 L/mmol/s

**Q.** What about the r1 human plasma ([2]; human plasma) of the same substance?
**A.** 14.6 L/mmol/s

**Q.** And the r1 water ([2]; water)?
**A.** 13.4 L/mmol/s

**Q.** What about the “appearance of the solution after autoclaving” value [3] of the same substance?
**A.** still clear and colorless

**Q.** And the Solubility [4]?
**A.** >1100 mmol Gd/L
